Substitutions are numbered along the chain they refer to. “Also recorded” adds a separate entry of the source.

The values below come from patent publication US10822325B2, “Human GLUT5 specific inhibitors and methods of treatment” (UNM RAINFOREST INNOVATIONS, priority 2015, dated 2020).

For one test, the target named is T1, human GLUT1 (Homo sapiens, UniProt P11166).
T1 construct: Full length DNA was subcloned into pFastBac1 (Life Technologies) vector with a N-terminal hexahistidine tag; hexahistidine (N); made in house; host or cells: Sf21 insect cells (baculovirus, pFastBac1)
T1 sequence (P11166 1-492): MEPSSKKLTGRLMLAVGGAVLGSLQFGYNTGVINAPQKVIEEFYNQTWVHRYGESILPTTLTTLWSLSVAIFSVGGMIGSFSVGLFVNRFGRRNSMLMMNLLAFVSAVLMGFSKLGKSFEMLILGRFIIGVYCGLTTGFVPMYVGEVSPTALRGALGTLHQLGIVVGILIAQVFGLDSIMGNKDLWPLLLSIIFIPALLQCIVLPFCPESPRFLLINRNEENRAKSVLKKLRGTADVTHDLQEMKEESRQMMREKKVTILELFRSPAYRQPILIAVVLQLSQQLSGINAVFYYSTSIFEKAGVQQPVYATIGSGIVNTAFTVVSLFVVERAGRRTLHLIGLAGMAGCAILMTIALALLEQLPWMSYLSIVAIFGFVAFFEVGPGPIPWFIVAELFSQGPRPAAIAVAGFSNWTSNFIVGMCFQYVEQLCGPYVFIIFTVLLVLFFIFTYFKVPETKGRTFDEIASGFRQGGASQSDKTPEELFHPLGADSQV
In words: Glucose entrance counter-flow transport in GLUT1 proteoliposomes. The test is classed as biochemical. The conditions noted are these: 2 mM compound, one minute. As for the experimental part:
(§1) cDNAs of GLUT1, 3, 4 and 5 were purchased from Open Biosystems (GE Healthcare). cDNAs of GLUT2 was a gift from Prof. Graeme Bell at University of Chicago. Full length DNA was subcloned into pFastBac1 (Life Technologies) vector with a N-terminal hexahistidine tag. Bacmids were generated in DH10Bac E. coli cells (Life Technologies). Baculoviruses were produced using Cellfectin II Reagent and amplified in Sf21 insect cells (Life Technologies). Cells were maintained at 26° C., and P1 (10^6 pfu/mL) was collected from infected cells after 72 hours. SF21 cells were propagated in HyClone SFX-Insect media (GE Healthcare), supplemented with 5% fetal bovine serum (Biowest), 4.8 mM glutamine, antibiotics (100 units/mL Penicillin G and 100 μg/mL streptomycin sulfate) and amphotericin B (2.5 μg/mL). […]
(§2) For the entrance counterflow transport in proteoliposomes, the assay was started by the addition of 5 μL proteoliposomes solution (OD600 nm ˜30) to 200 μL, assay solution, containing 10 μM ^14C-radiolabeled glucose (for GLUT1 wild-type or F379H mutant and GLUT2-4) or fructose (for GLUT5 wild-type or H387F mutant and GLUT2) (Moravek Biochemicals) in 100 mM KPi buffer at pH 7.5. After one minute (or different specified time points when the time-dependent counter-flow transport activity was measured), the transport was stopped with ice-chilled quench buffer [0.1 M KPi (pH 5.5) and 0.1 M lithium chloride].

The next test concerns the target T2, GLUT1F379H (Homo sapiens, UniProt P11166, F379H).
T2 construct: Full length DNA was subcloned into pFastBac1 (Life Technologies) vector with a N-terminal hexahistidine tag; hexahistidine (N); made in house; host or cells: Sf21 insect cells (baculovirus, pFastBac1)
T2 sequence (P11166 1-492 F379H): T1 sequence (P11166 1-492) with F379H
Description: Glucose entrance counter-flow transport in GLUT1F379H mutant proteoliposomes. It is filed as biochemical. The note with it: 2 mM compound. On the procedure:
as §1, §2

Turning to `CS(=O)(=O)c1ccc(Nc2ccc3c(c2)OCO3)c([N+](=O)[O-])c1` [MSNBA, N-[4-(methylsulfonyl)-2-nitrophenyl]-1,3-benzodioxol-5-amine], the “effect on GLUT1 glucose transport” value on human GLUT1 was “did not affect; also recorded: did not influence”. In addition, on GLUT1F379H, the “effect on GLUT1F379H glucose transport” value is “remained insensitive; also recorded: remained unaffected”.
The matching figures for `O=C(CCc1ccc(O)cc1)c1c(O)cc(O)cc1O` [phloretin, reference compound]: “inhibited” and “no longer inhibited; also recorded: ceased to inhibit”.
